How the values were obtained:
human orexin-2 receptor = human orexin-2 receptor (Homo sapiens (Human), UniProt O43614); experiment: Human orexin 2 receptor radioligand binding ([3H]-EMPA competition); settings: HEK293 cells stably expressing human orexin-2 receptor; [3H]-EMPA 5 nM final; read-out: OR-2 Ki
Method in brief: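 Competition binding on HEK293 cells stably expressing human orexin-2 receptor, using 5 nM final [3H]-EMPA in PBS, compounds 0.1 nM to 10 μM (DMSO ≤0.1%). 60 min at room temperature, then filtration and scintillation counting; nonspecific binding defined with 10 μM of a reference antagonist.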

human orexin 1 receptor = human orexin 1 receptor (Homo sapiens (Human), UniProt O43613); experiment: Human orexin 1 receptor radioligand binding ([3H]-SB674042 competition); settings: CHO cells stably expressing human orexin 1 receptor; [3H]-SB674042 4 nM final; read-out: OR-1 Ki
Method in brief: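 CHO cells stably expressing human OX1R incubated 60 min at room temperature with [3H]-SB674042 and compounds (7 concentrations, 0.1 nM–10 μM; DMSO ≤0.1%) in PBS. Nonspecific binding defined with 10 μM of a reference urea antagonist; bound radioactivity measured by filtration and scintillation counting.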

human orexin-2 receptor, sequence (O43614 whole entry): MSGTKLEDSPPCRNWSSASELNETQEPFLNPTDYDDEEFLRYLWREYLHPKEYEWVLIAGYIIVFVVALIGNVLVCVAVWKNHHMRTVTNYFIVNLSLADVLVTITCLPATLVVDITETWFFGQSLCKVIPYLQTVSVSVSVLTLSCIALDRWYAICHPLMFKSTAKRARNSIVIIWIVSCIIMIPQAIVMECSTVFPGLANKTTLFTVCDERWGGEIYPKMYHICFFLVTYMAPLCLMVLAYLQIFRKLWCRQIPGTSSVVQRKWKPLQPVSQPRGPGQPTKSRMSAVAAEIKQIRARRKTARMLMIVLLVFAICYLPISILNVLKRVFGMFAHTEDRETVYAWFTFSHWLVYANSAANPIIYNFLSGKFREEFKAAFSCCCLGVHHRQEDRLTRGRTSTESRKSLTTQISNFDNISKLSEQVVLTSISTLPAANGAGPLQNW
human orexin 1 receptor, sequence (O43613 whole entry): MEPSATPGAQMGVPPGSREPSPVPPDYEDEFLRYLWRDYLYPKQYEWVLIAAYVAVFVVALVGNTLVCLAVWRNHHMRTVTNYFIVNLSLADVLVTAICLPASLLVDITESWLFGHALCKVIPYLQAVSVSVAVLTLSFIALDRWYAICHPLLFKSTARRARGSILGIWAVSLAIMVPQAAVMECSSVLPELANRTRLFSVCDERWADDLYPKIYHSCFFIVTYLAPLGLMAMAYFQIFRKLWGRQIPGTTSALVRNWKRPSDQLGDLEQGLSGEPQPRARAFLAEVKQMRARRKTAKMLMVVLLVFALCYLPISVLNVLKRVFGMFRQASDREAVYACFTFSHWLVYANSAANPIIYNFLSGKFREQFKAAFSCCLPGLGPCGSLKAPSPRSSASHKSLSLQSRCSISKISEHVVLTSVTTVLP

Row | Compound | Ki (human orexin-2 receptor) [nM] | Ki (human orexin 1 receptor) [nM]
1 | COc1ccc(-n2nccn2)c(C(=O)N2CC[C@H]3CN(c4cc(C)ccn4)[C@H]3C2)c1 [Example 139, (1R,6S)-3-{[5-Methoxy-2-(2H-1,2,3-triazol-2-yl)phenyl]carbonyl}-8-(4-methylpyridin-2-yl)-3,8-diazabicyclo[4.2.0]octane] | 208 | 6500
2 | COc1ccc(-n2nccn2)c(C(=O)N2CC[C@H]3CN(c4cc(C(F)(F)F)ccn4)[C@H]3C2)c1 [Example 140, (1R,6S)-3-{[5-Methoxy-2-(2H-1,2,3-triazol-2-yl)phenyl]carbonyl}-8-[4-(trifluoromethyl)pyridin-2-yl]-3,8-diazabicyclo[4.2.0]octane] | 70 | 1070
3 | Cc1cccc(C(=O)N2CC[C@H]3CN(c4cc(N(C)C)ccn4)[C@H]3C2)c1-n1nccn1 [Example 141, N,N-Dimethyl-2-[(1R,6S)-3-{[3-methyl-2-(2H-1,2,3-triazol-2-yl)phenyl]carbonyl}-3,8-diazabicyclo[4.2.0]oct-8-yl]pyridin-4-amine] | 734 | 9000
4 | COc1ccc(C(=O)N2CC[C@H]3CN(c4cc(N(C)C)ccn4)[C@H]3C2)c(-n2nccn2)c1 [Example 142, 2-[(1R,6S)-3-{[4-Methoxy-2-(2H-1,2,3-triazol-2-yl)phenyl]carbonyl}-3,8-diazabicyclo[4.2.0]oct-8-yl]-N,N-dimethylpyridin-4-amine] | 9000 | 10000
5 | CN(C)c1ccnc(N2C[C@@H]3CCN(C(=O)c4cccc(F)c4-c4ncccn4)C[C@@H]32)c1 [Example 143, 2-{(1R,6S)-3-[(3-Fluoro-2-pyrimidin-2-ylphenyl)carbonyl]-3,8-diazabicyclo[4.2.0]oct-8-yl}-N,N-dimethylpyridin-4-amine] | 9000 | 10000
6 | CN(C)c1ccnc(N2C[C@@H]3CCN(C(=O)c4cccc(F)c4-n4nccn4)C[C@@H]32)c1 [Example 144, 2-[(1R,6S)-3-{[3-Fluoro-2-(2H-1,2,3-triazol-2-yl)phenyl]carbonyl}-3,8-diazabicyclo[4.2.0]oct-8-yl]-N,N-dimethylpyridin-4-amine] | 2810 | 10000
7 | O=C(c1cccc(F)c1-n1nccn1)N1CC[C@H]2CN(c3cc(C(F)(F)F)ccn3)[C@H]2C1 [Example 145, (1R,6S)-3-{[3-Fluoro-2-(2H-1,2,3-triazol-2-yl)phenyl]carbonyl}-8-[4-(trifluoromethyl)pyridin-2-yl]-3,8-diazabicyclo[4.2.0]octane] | 110 | 3300
8 | COc1ccc(C(=O)N2CC[C@H]3CN(c4cc(C(F)(F)F)ccn4)[C@H]3C2)c(-n2nccn2)c1 [Example 146, (1R,6S)-3-{[4-Methoxy-2-(2H-1,2,3-triazol-2-yl)phenyl]carbonyl}-8-[4-(trifluoromethyl)pyridin-2-yl]-3,8-diazabicyclo[4.2.0]octane] | 299 | 9000
9 | Cc1cccc(C(=O)N2CC[C@H]3CN(c4cc(C(F)(F)F)ccn4)[C@H]3C2)c1-n1nccn1 [Example 147, (1R,6S)-3-{[3-Methyl-2-(2H-1,2,3-triazol-2-yl)phenyl]carbonyl}-8-[4-(trifluoromethyl)pyridin-2-yl]-3,8-diazabicyclo[4.2.0]octane] | 91 | 793
10 | Cc1cc(C)nc(N2C[C@@H]3CCN(C(=O)c4cccc(F)c4-n4nccn4)C[C@@H]32)c1 [Example 148, (1R,6S)-8-(4,6-Dimethylpyridin-2-yl)-3-{[3-fluoro-2-(2H-1,2,3-triazol-2-yl)phenyl]carbonyl}-3,8-diazabicyclo[4.2.0]octane] | 36 | 845
11 | COc1ccc(C(=O)N2CC[C@H]3CN(c4cc(C)cc(C)n4)[C@H]3C2)c(-n2nccn2)c1 [Example 149, (1R,6S)-8-(4,6-Dimethylpyridin-2-yl)-3-{[4-methoxy-2-(2H-1,2,3-triazol-2-yl)phenyl]carbonyl}-3,8-diazabicyclo[4.2.0]octane] | 190 | 10000
12 | COc1ccc(-n2nccn2)c(C(=O)N2CC[C@H]3CN(c4cc(N(C)C)ccn4)[C@H]3C2)c1 [Example 150, 2-[(1R,6S)-3-{[5-Methoxy-2-(2H-1,2,3-triazol-2-yl)phenyl]carbonyl}-3,8-diazabicyclo[4.2.0]oct-8-yl]-N,N-dimethylpyridin-4-amine] | 532 | 10000
13 | COc1ccc(-n2nccn2)c(C(=O)N2CC[C@H]3CN(c4cc(C)cc(C)n4)[C@H]3C2)c1 [Example 151, (1R,6S)-8-(4,6-Dimethylpyridin-2-yl)-3-{[5-methoxy-2-(2H-1,2,3-triazol-2-yl)phenyl]carbonyl}-3,8-diazabicyclo[4.2.0]octane] | 17 | 341
14 | O=C(c1cccc(F)c1-c1ncccn1)N1CC[C@H]2CN(c3cc(C(F)(F)F)ccn3)[C@H]2C1 [Example 152, (1R,6S)-3-[(3-Fluoro-2-pyrimidin-2-ylphenyl)carbonyl]-8-[4-(trifluoromethyl)pyridin-2-yl]-3,8-diazabicyclo[4.2.0]octane] | 223 | 1850
15 | Cc1cc(C)nc(N2C[C@@H]3CCN(C(=O)c4cccc(F)c4-c4ncccn4)C[C@@H]32)c1 [Example 153, (1R,6S)-8-(4,6-Dimethylpyridin-2-yl)-3-[(3-fluoro-2-pyrimidin-2-ylphenyl)carbonyl]-3,8-diazabicyclo[4.2.0]octane] | 82 | 687
16 | COc1ccc(Br)c(C(=O)N2CC[C@H]3CN(c4nc(C)cc(C)n4)[C@H]3C2)c1F [Example 154, (1R,6S)-3-[(6-Bromo-2-fluoro-3-methoxyphenyl)carbonyl]-8-(4,6-dimethylpyrimidin-2-yl)-3,8-diazabicyclo[4.2.0]octane] | 140 | 1200
17 | Cc1cc(C)nc(N2C[C@@H]3CCN(C(=O)c4cccc(F)c4-n4cccn4)C[C@@H]32)n1 [Example 155, (1R,6S)-8-(4,6-Dimethylpyrimidin-2-yl)-3-{[3-fluoro-2-(1H-pyrazol-1-yl)phenyl]carbonyl}-3,8-diazabicyclo[4.2.0]octane] | 57 | 1530
18 | COc1ccc(-c2ncccn2)c(C(=O)N2CC[C@H]3CN(c4nc(C)cc(C)n4)[C@H]3C2)c1F [Example 156, (1R,6S)-8-(4,6-Dimethylpyrimidin-2-yl)-3-[(2-fluoro-3-methoxy-6-pyrimidin-2-ylphenyl)carbonyl]-3,8-diazabicyclo[4.2.0]octane] | 185 | 860
19 | Cc1cc(C)nc(N2C[C@@H]3CCN(C(=O)c4cc(C)c(C)nc4-n4nccn4)C[C@@H]32)n1 [Example 157, (1R,6S)-8-(4,6-Dimethylpyrimidin-2-yl)-3-{[5,6-dimethyl-2-(2H-1,2,3-triazol-2-yl)pyridin-3-yl]carbonyl}-3,8-diazabicyclo[4.2.0]octane] | 230 | 3900
20 | Cc1cc(C)nc(N2C[C@@H]3CCN(C(=O)c4cc(C)c(C)nc4-n4ccnn4)C[C@@H]32)n1 [Example 158, (1R,6S)-8-(4,6-Dimethylpyrimidin-2-yl)-3-{[5,6-dimethyl-2-(1H-1,2,3-triazol-1-yl)pyridin-3-yl]carbonyl}-3,8-diazabicyclo[4.2.0]octane] | 170 | 3200
21 | Cc1cc(C)nc(N2C[C@@H]3CCN(C(=O)c4ccc(C(F)(F)F)nc4-n4ccnn4)C[C@@H]32)n1 [Example 159, (1R,6S)-8-(4,6-Dimethylpyrimidin-2-yl)-3-{[2-(1H-1,2,3-triazol-1-yl)-6-(trifluoromethyl)pyridin-3-yl]carbonyl}-3,8-diazabicyclo[4.2.0]octane] | 540 | 10000
22 | Cc1cnc(-n2nccn2)c(C(=O)N2CC[C@H]3CN(c4nc(C)cc(C)n4)[C@H]3C2)c1 [Example 160, (1R,6S)-8-(4,6-Dimethylpyrimidin-2-yl)-3-{[5-methyl-2-(2H-1,2,3-triazol-2-yl)pyridin-3-yl]carbonyl}-3,8-diazabicyclo[4.2.0]octane] | 370 | 6000
23 | Cc1cnc(-n2ccnn2)c(C(=O)N2CC[C@H]3CN(c4nc(C)cc(C)n4)[C@H]3C2)c1 [Example 161, (1R,6S)-8-(4,6-Dimethylpyrimidin-2-yl)-3-{[5-methyl-2-(1H-1,2,3-triazol-1-yl)pyridin-3-yl]carbonyl}-3,8-diazabicyclo[4.2.0]octane] | 280 | 4500
24 | COc1ccc(C(=O)N2CC[C@H]3CN(c4nc(C)cc(C)n4)[C@H]3C2)c(-n2nccn2)n1 [Example 162, (1R,6S)-8-(4,6-Dimethylpyrimidin-2-yl)-3-{[6-methoxy-2-(2H-1,2,3-triazol-2-yl)pyridin-3-yl]carbonyl}-3,8-diazabicyclo[4.2.0]octane] | 380 | 10000
25 | COc1ccc(C(=O)N2CC[C@H]3CN(c4nc(C)cc(C)n4)[C@H]3C2)c(-n2ccnn2)n1 [Example 163, (1R,6S)-8-(4,6-Dimethylpyrimidin-2-yl)-3-{[6-methoxy-2-(1H-1,2,3-triazol-1-yl)pyridin-3-yl]carbonyl}-3,8-diazabicyclo[4.2.0]octane] | 700 | 10000
26 | Cc1cc(C)nc(N2C[C@@H]3CCN(C(=O)c4cc(F)ccc4Br)C[C@@H]32)n1 [Example 164, (1R,6S)-3-[(2-Bromo-5-fluorophenyl)carbonyl]-8-(4,6-dimethylpyrimidin-2-yl)-3,8-diazabicyclo[4.2.0]octane] | 190 | 3900

— patent US8680275B2, “Fused heterocyclic compounds as orexin receptor modulators” (Janssen Pharmaceutica NV, priority 2009, dated 2014)
